Measurements taken from the supplement of paper PMC10307832.

Experiments:
Test in all cases: relative viability (nuclei count vs DMSO), 5 days (fraction); higher = more cells survive
[1] = compound: CC[C@H](Nc1ncnc2[nH]cnc12)c1nc2cccc(F)c2c(=O)n1-c1ccccc1 [Idelalisib] + CC1(C)CCC(c2ccc(Cl)cc2)=C(CN2CCN(c3ccc(C(=O)NS(=O)(=O)c4ccc(N[C@H](CCN5CCOCC5)CSc5ccccc5)c(S(=O)(=O)C(F)(F)F)c4)cc3)CC2)C1 [Navitoclax] (partner 0.5 µM)
How it was run: (§1)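 Lung cancer cell lines were seeded in 1536-well plates and dosed by pin tool the next day, with either a single drug or a fixed anchor-drug dose combined with five library-drug doses (not always all listed) spaced in √10 steps. Five days later, one step fixed the cells and stained their nuclei (final 0.05% Triton X-100, 1% formaldehyde, 1 ug/ml Hoechst), and nuclei were counted on 4× images. Relative viability is the nuclei count in treated wells divided by the count in vehicle wells, and each value is the median of duplicate plates.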

[2] = compound: Nc1nc2[nH]cc(CCc3ccc(C(=O)N[C@@H](CCC(=O)O)C(=O)O)cc3)c2c(=O)[nH]1 [Pemetrexed] + CC(=O)Nc1cccc(-n2c(=O)n(C3CC3)c(=O)c3c(Nc4ccc(I)cc4F)n(C)c(=O)c(C)c32)c1 [Trametinib] (partner 0.02 µM)
How it was run: as §1

[3] = compound: Nc1nc2[nH]cc(CCc3ccc(C(=O)N[C@@H](CCC(=O)O)C(=O)O)cc3)c2c(=O)[nH]1 [Pemetrexed] + N=C(N)NC(=N)NCCc1ccccc1 [Phenformin] (partner 250 µM)
How it was run: as §1

[4] = compound: Nc1nc2[nH]cc(CCc3ccc(C(=O)N[C@@H](CCC(=O)O)C(=O)O)cc3)c2c(=O)[nH]1 [Pemetrexed] + O=C(CCCCCCC(=O)Nc1ccccc1)NO [Vorinostat] (partner 1 µM)
How it was run: as §1

NCI-H441
relative viability ([1]; first compound 0.04 µM): 0.556
relative viability ([1]; first compound 0.1265 µM): 0.67
relative viability ([1]; first compound 1.265 µM): 0.467
relative viability ([1]; first compound 4 µM): 0.574
relative viability ([2]; first compound 0.002 µM): 0.536
relative viability ([2]; first compound 0.006325 µM): 0.501
relative viability ([2]; first compound 0.02 µM): 0.448
relative viability ([2]; first compound 0.06325 µM): 0.303
relative viability ([2]; first compound 0.2 µM): 0.247
relative viability ([3]; first compound 0.002 µM): 0.594
relative viability ([3]; first compound 0.006325 µM): 0.793
relative viability ([3]; first compound 0.02 µM): 0.515
relative viability ([3]; first compound 0.06325 µM): 0.555
relative viability ([3]; first compound 0.2 µM): 0.393
relative viability ([4]; first compound 0.002 µM): 0.693
relative viability ([4]; first compound 0.006325 µM): 0.788
relative viability ([4]; first compound 0.02 µM): 0.763
relative viability ([4]; first compound 0.06325 µM): 0.695
relative viability ([4]; first compound 0.2 µM): 0.262

NCI-H2170
relative viability ([1]; first compound 0.04 µM): 0.665
relative viability ([1]; first compound 0.1265 µM): 0.613
relative viability ([1]; first compound 0.4 µM): 0.524
relative viability ([1]; first compound 1.265 µM): 0.598
relative viability ([1]; first compound 4 µM): 0.509
relative viability ([2]; first compound 0.002 µM): 0.916
relative viability ([2]; first compound 0.006325 µM): 0.915
relative viability ([2]; first compound 0.02 µM): 0.923
relative viability ([2]; first compound 0.06325 µM): 0.955
relative viability ([2]; first compound 0.2 µM): 0.912
relative viability ([3]; first compound 0.002 µM): 0.449
relative viability ([3]; first compound 0.006325 µM): 0.443
relative viability ([3]; first compound 0.02 µM): 0.424
relative viability ([3]; first compound 0.06325 µM): 0.42
relative viability ([3]; first compound 0.2 µM): 0.405
relative viability ([4]; first compound 0.002 µM): 0.564
relative viability ([4]; first compound 0.006325 µM): 0.813
relative viability ([4]; first compound 0.02 µM): 0.899
relative viability ([4]; first compound 0.06325 µM): 0.823
relative viability ([4]; first compound 0.2 µM): 0.45

PC-14
relative viability ([1]; first compound 0.04 µM): 0.987
relative viability ([1]; first compound 0.1265 µM): 1.1
relative viability ([1]; first compound 0.4 µM): 0.953
relative viability ([1]; first compound 1.265 µM): 1.14
relative viability ([1]; first compound 4 µM): 1.02
relative viability ([2]; first compound 0.002 µM): 0.681
relative viability ([2]; first compound 0.006325 µM): 0.651
relative viability ([2]; first compound 0.02 µM): 0.805
relative viability ([2]; first compound 0.06325 µM): 0.198
relative viability ([2]; first compound 0.2 µM): 0.123
relative viability ([3]; first compound 0.002 µM): 0.452
relative viability ([3]; first compound 0.006325 µM): 0.582
relative viability ([3]; first compound 0.02 µM): 0.901
relative viability ([3]; first compound 0.06325 µM): 0.445
relative viability ([3]; first compound 0.2 µM): 0.27
relative viability ([4]; first compound 0.002 µM): 0.656
relative viability ([4]; first compound 0.006325 µM): 0.636
relative viability ([4]; first compound 0.02 µM): 0.775
relative viability ([4]; first compound 0.06325 µM): 0.226
relative viability ([4]; first compound 0.2 µM): 0.123

NCI-H2009
relative viability ([1]; first compound 0.04 µM): 1.11
relative viability ([1]; first compound 0.1265 µM): 1.17
relative viability ([1]; first compound 0.4 µM): 1.19
relative viability ([1]; first compound 1.265 µM): 1.22
relative viability ([1]; first compound 4 µM): 1.18
relative viability ([2]; first compound 0.002 µM): 0.303
relative viability ([2]; first compound 0.006325 µM): 0.256
relative viability ([2]; first compound 0.02 µM): 0.316
relative viability ([2]; first compound 0.06325 µM): 0.249
relative viability ([2]; first compound 0.2 µM): 0.27
relative viability ([3]; first compound 0.002 µM): 0.466
relative viability ([3]; first compound 0.006325 µM): 0.494
relative viability ([3]; first compound 0.02 µM): 0.539
relative viability ([3]; first compound 0.06325 µM): 0.47
relative viability ([3]; first compound 0.2 µM): 0.477
relative viability ([4]; first compound 0.002 µM): 0.631
relative viability ([4]; first compound 0.006325 µM): 0.7
relative viability ([4]; first compound 0.02 µM): 0.776
relative viability ([4]; first compound 0.06325 µM): 0.681
relative viability ([4]; first compound 0.2 µM): 0.654

NCI-H1395
relative viability ([1]; first compound 0.04 µM): 1.53
relative viability ([1]; first compound 0.1265 µM): 1.11
relative viability ([1]; first compound 0.4 µM): 1.05
relative viability ([1]; first compound 1.265 µM): 1.04
relative viability ([1]; first compound 4 µM): 0.982
relative viability ([2]; first compound 0.002 µM): 0.932
relative viability ([2]; first compound 0.006325 µM): 1
relative viability ([2]; first compound 0.02 µM): 1.13
relative viability ([2]; first compound 0.06325 µM): 0.954
relative viability ([2]; first compound 0.2 µM): 1.03
relative viability ([3]; first compound 0.002 µM): 0.4
relative viability ([3]; first compound 0.006325 µM): 0.472
relative viability ([3]; first compound 0.02 µM): 0.521
relative viability ([3]; first compound 0.06325 µM): 0.411
relative viability ([3]; first compound 0.2 µM): 0.447
relative viability ([4]; first compound 0.002 µM): 0.513
relative viability ([4]; first compound 0.006325 µM): 0.871
relative viability ([4]; first compound 0.02 µM): 0.959
relative viability ([4]; first compound 0.06325 µM): 0.7
relative viability ([4]; first compound 0.2 µM): 0.738

NCI-H1437
relative viability ([1]; first compound 0.04 µM): 0.956
relative viability ([1]; first compound 0.1265 µM): 1.13
relative viability ([1]; first compound 0.4 µM): 1.08
relative viability ([1]; first compound 1.265 µM): 1.17
relative viability ([1]; first compound 4 µM): 1.11
relative viability ([2]; first compound 0.002 µM): 0.362
relative viability ([2]; first compound 0.006325 µM): 0.473
relative viability ([2]; first compound 0.02 µM): 0.424
relative viability ([2]; first compound 0.06325 µM): 0.382
relative viability ([2]; first compound 0.2 µM): 0.285
relative viability ([3]; first compound 0.006325 µM): 0.348
relative viability ([3]; first compound 0.02 µM): 0.281
relative viability ([3]; first compound 0.06325 µM): 0.196
relative viability ([3]; first compound 0.2 µM): 0.163
relative viability ([4]; first compound 0.002 µM): 0.853
relative viability ([4]; first compound 0.006325 µM): 0.813
relative viability ([4]; first compound 0.02 µM): 0.806
relative viability ([4]; first compound 0.06325 µM): 0.596
relative viability ([4]; first compound 0.2 µM): 0.364

NCI-H647
relative viability ([1]; first compound 0.04 µM): 1.17
relative viability ([1]; first compound 0.1265 µM): 1.1
relative viability ([1]; first compound 0.4 µM): 0.981
relative viability ([1]; first compound 1.265 µM): 0.837
relative viability ([1]; first compound 4 µM): 0.745
relative viability ([2]; first compound 0.002 µM): 0.52
relative viability ([2]; first compound 0.006325 µM): 0.436
relative viability ([2]; first compound 0.02 µM): 0.478
relative viability ([2]; first compound 0.06325 µM): 0.406
relative viability ([2]; first compound 0.2 µM): 0.17
relative viability ([3]; first compound 0.002 µM): 0.457
relative viability ([3]; first compound 0.006325 µM): 0.445
relative viability ([3]; first compound 0.02 µM): 0.598
relative viability ([3]; first compound 0.06325 µM): 0.482
relative viability ([3]; first compound 0.2 µM): 0.236
relative viability ([4]; first compound 0.002 µM): 0.387
relative viability ([4]; first compound 0.006325 µM): 0.479
relative viability ([4]; first compound 0.02 µM): 0.594
relative viability ([4]; first compound 0.06325 µM): 0.458
relative viability ([4]; first compound 0.2 µM): 0.171

NCI-H1793
relative viability ([1]; first compound 0.04 µM): 0.379
relative viability ([1]; first compound 0.1265 µM): 0.462
relative viability ([1]; first compound 0.4 µM): 0.259
relative viability ([1]; first compound 1.265 µM): 0.346
relative viability ([1]; first compound 4 µM): 0.22
relative viability ([2]; first compound 0.002 µM): 0.411
relative viability ([2]; first compound 0.006325 µM): 0.323
relative viability ([2]; first compound 0.02 µM): 0.381
relative viability ([2]; first compound 0.06325 µM): 0.423
relative viability ([2]; first compound 0.2 µM): 0.424
relative viability ([3]; first compound 0.002 µM): 0.436
relative viability ([3]; first compound 0.006325 µM): 0.361
relative viability ([3]; first compound 0.02 µM): 0.42
relative viability ([3]; first compound 0.06325 µM): 0.349
relative viability ([3]; first compound 0.2 µM): 0.405
relative viability ([4]; first compound 0.002 µM): 0.613
relative viability ([4]; first compound 0.006325 µM): 0.792
relative viability ([4]; first compound 0.02 µM): 0.69
relative viability ([4]; first compound 0.06325 µM): 0.986
relative viability ([4]; first compound 0.2 µM): 0.796
